US6849599B2, “Combination drug therapy” (priority 2000, dated 2005)

Columns and labels:
HT29 cells = assay: Tumor growth in nude mice bearing xenografts of human colon tumor cell line HT29; assay type: in vivo; settings: for Treated tumor size/Control tumor size (T/C): p<0.05
Description: The antineoplastic activity of TSP plus CPT-11 was evaluated in an art-recognized model for cancer, nude mice bearing xenografts of the human colon tumor cell line HT29.

[1] = Toxicity and mortality in the treated HT29 xenograft nude mice; assay type: in vivo
Description: For in vivo studies, nude mice were inoculated subcutaneously in the left axillary region with 5×10^6 HT29 cells. When tumors were palpable (approximately 50 mg), mice were divided into groups (n=15-22) and treated as follows: (i) no treatment; (ii) TSP alone (5-40 mg/kg intraperitoneally) (iii) CPT-11 alone (100-300 mg/kg intraperitoneally); or (iv) TSP (20 mg/kg)+CPT-11 (150 mg/kg). TSP was injected daily while CPT-11 was administered on days 0, 7, 14, and 21. Mice were weighed and tumors measured twice weekly. […] Treated tumor size/Control tumor size (T/C) equaled 0.64 or 0.57, respectively. […] When TSP was combined with CPT-11, a highly significant inhibition of tumor growth was observed compared to control (T/C=0.1, with p=0.00002) and compared to CPT-11 alone (p=0.0008).

Compound | Treated tumor size/Control tumor size (T/C) (HT29 cells; TSP alone 10 mg/kg intraperitoneally daily, day 28) | Treated tumor size/Control tumor size (T/C) (HT29 cells; TSP alone 20 mg/kg intraperitoneally daily, day 28) | Inhibition of tumor growth, other doses (HT29 cells; TSP alone, other doses of 5-40 mg/kg intraperitoneally daily, compared with 10 or 20 mg/kg) | average T/C (HT29 cells; CPT-11 alone, all doses (100-300 mg/kg intraperitoneally, days 0, 7, 14, 21), day 28, p<0.001) | Toxicity and mortality ([1]; CPT-11 alone at 250 mg/kg intraperitoneally) | Toxicity and mortality ([1]; CPT-11 alone at 300 mg/kg intraperitoneally)
Thrombospondin-1 [TSP] | 0.64 | 0.57 | less effective | – | – | –
CCc1c2c(nc3ccc(OC(=O)N4CCC(N5CCCCC5)CC4)cc13)-c1cc3c(c(=O)n1C2)COC(=O)[C@]3(O)CC [CPT-11, 7-ethyl-10-[4-(1-piperidino)-1-piperidino]-carbonloxycamptothecin] | – | – | – | 0.3 | induced significant toxicity and mortality | induced significant toxicity and mortality
